{"source": "ChEMBL document CHEMBL1135275", "about": "“Structural approach of the mechanism of inhibition of alpha-chymotrypsin by coumarins” (Bioorg Med Chem Lett, 2002)"}
{"molecular_target": "Chymotrypsinogen B (Bos taurus) (UniProt P00767)", "sequence (P00767 16-146 limits assumed, other chains not shown)": "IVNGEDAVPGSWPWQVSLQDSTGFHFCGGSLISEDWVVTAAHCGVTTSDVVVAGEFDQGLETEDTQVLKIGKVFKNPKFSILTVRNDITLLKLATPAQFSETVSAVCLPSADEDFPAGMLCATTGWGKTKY", "sequence (P00767 149-245 limits assumed, other chains not shown)": "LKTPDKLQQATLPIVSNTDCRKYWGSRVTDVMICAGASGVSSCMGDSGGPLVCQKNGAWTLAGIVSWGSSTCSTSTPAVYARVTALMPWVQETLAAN", "assay": "The compound was tested for inhibitory potency against Chymotrypsinogen", "units": {"K inact/Km": "M⁻¹ s⁻¹"}}
{"compound": "O=C(Oc1ccccc1)c1cc2cc(CCl)ccc2oc1=O", "K inact/Km": 100000}
{"compound": "O=C(Nc1ccccc1)c1cc2cc(CCl)ccc2oc1=O", "K inact/Km": 200}
{"compound": "O=C(Sc1ccccc1)c1cc2cc(CCl)ccc2oc1=O", "K inact/Km": 48000}
{"compound": "O=C(Cc1ccccc1)c1cc2cc(CCl)ccc2oc1=O", "K inact/Km": 10000}
{"compound": "O=C(c1ccccc1)c1cc2cc(CCl)ccc2oc1=O", "K inact/Km": 2400}
